“And” between values parts separate entries of the source, which are not always exact repeats. Equal values may be shown once. Read-outs that look alike come from different tables or passages of the source.

We go through seven compounds from patent publication US10155732B2, “Ribonucleotide reductase inhibitors and methods of use” (City of Hope, priority 2012, dated 2018).

In data set [1] the target is recombinant RRM1/RRM2 complex (Homo sapiens (Human), UniProt P31350). Put plainly: in vitro holoenzyme-based RR assay, [3H]CDP reduction by HPLC. The data set is classed as biochemical. To be noted: for inhibition of native RRM1/RRM2 activity in vitro screen: screen of top 80 virtual screening candidates. The text has this:
Compounds that docked into the ligand binding pocket were identified using the TRIPOS FlexX docking tool and ranked using an embedded consensus docking score. […] The assay utilized recombinant RRM1/RRM2 or RRM1/RRM2 complex and measured [^3H]CDP reduction activity (i.e., CDP to dCDP) by HPLC.

The subject of a further data set is human leukemia REH cells. Put plainly: MTT cytotoxicity assay. Particulars: 72 hours. In kind it is cell-based. The method, then: (§1) The in vitro cytotoxicity of COH4 and COH20 towards human leukemia REH and MOLT-4 cells, human prostate cancer LNCaP cells, human oropharyngeal cancer KB cells, and normal fibroblast NHDF cells was evaluated using an MTT assay. 5,000 cells were seeded on six-well plates for 72 hours with various concentrations of drug. COH20 was cytotoxic to the cancer cell lines at less than 10 μM, while causing less cytotoxicity to normal cells than 3-AP.
In general terms: Formazan colour is commonly taken as a measure of viable cells.

For data set [2], the system named is human prostate cancer LNCaP cells. The data set can be described thus: MTT cytotoxicity assay. In kind it is cell-based. Particulars: 72 hours. The protocol:
as §1

Data set [3] deals with human oropharyngeal cancer KB cells. Put plainly: MTT cytotoxicity assay. In kind it is cell-based. To be noted: 72 hours. The protocol:
as §1

Data set [4] deals with human leukemia MOLT-4 cells. Put plainly: MTT cytotoxicity assay. The data set is classed as cell-based. The method, then: as §1
(§2) The in vitro cytotoxicity of COH29 towards a panel of human cancer cell lines was tested using the MTT assay described above.

Data set [5] has as its system normal fibroblast NHDF cells. The data set can be described thus: MTT cytotoxicity assay. In kind it is cell-based, human. To be noted: 72 hours. The protocol: as §1
The next data set has as its system KBMDR. Put plainly: in vitro cytotoxicity assay, multidrug resistant clone. The data set is classed as cell-based, human.
In a further data set the test system is intracellular RR. Put plainly: intracellular RR activity in lysates of treated KB cells. The data set is classed as cell-based, human. To be noted: KB cells treated with 10 μM. The method, then:
To confirm that the ability of COH20 to inhibit RR activity was not specific to recombinant RR, an assay was performed testing the effect of COH20 on intracellular RR. KB cells treated with 10 μM COH20 were lysed, and protein was extracted in a high salt buffer and passed through a G25 SEPHADEX® column to remove small molecules such as dNTP. The eluate was mixed with [^3H]CDP in reaction buffer to monitor RR activity. Treatment with COH20 decreased intracellular RR activity by approximately 50% (FIG. 7).

The subject of the next data set is KBHURs. The data set can be described thus: in vitro cytotoxicity assay, HU-resistant clone. In kind it is cell-based, human. Particulars: overexpresses RRM2. The protocol:
as §1
In vitro cytotoxicity assays were repeated using KBHURs, an HU-resistant clone derived from KB cells that overexpresses RRM2. […] Similar experiments will be repeated using the gemcitabine resistant cell line KBGem, which also overexpresses RRM2.

Data set [6] relates to REH, MOLT-4, LNCaP and KB cancer cell lines. The data set can be described thus: MTT cytotoxicity assay, cancer cell lines together. In kind it is cell-based, human. The protocol:
as §1

The nature of data set [7]: single-dose pharmacokinetic evaluation in rats. The data set is classed as in vivo, rat. The protocol:
COH20 was injected into three male rats at 1 mg/kg for single-dose pharmacokinetic evaluation. […] More detailed pharmacokinetic studies will be performed with various dosages of COH20 to establish parameters such as clearance, bioavailability, and tissue/plasma partition coefficients.
Pharmacokinetic evaluation was performed on COH29 using the same techniques, with COH29 administered at a dosage of 25 mg/kg.

Data set [8] deals with NCI 60 human cancer cell lines. The data set can be described thus: MTT cytotoxicity assay, panel of human cancer cell lines. The data set is classed as cell-based. The protocol: as §1, §2
The subject of another data set is Ovarian Cancer OV 90. The data set can be described thus: MTT cytotoxicity assay. In kind it is cell-based. Particulars: Homo sapiens. The method, then:
as §1, §2

For the next data set, the system named is Leukemia CCRF-CEM. The data set can be described thus: MTT cytotoxicity assay. The data set is classed as cell-based. To be noted: Homo sapiens. The protocol: as §1, §2
The next data set relates to Leukemia SUP B15. The data set can be described thus: MTT cytotoxicity assay. In kind it is cell-based. To be noted: Homo sapiens. The method, then:
as §1, §2

The mark [9] stands for this setting: RR activity, Table 1, read-out: IC50 ± S.D.
Where [10] appears, read: Homo sapiens, MOLT-4, 72 hours, Table 3, read-out: IC50 MOLT-4.
Setting [11] is: rats, 25 mg/kg, individual analysis 1-3.

recombinant RRM1/RRM2 complex, sequence (P31350 whole entry, one chain of several): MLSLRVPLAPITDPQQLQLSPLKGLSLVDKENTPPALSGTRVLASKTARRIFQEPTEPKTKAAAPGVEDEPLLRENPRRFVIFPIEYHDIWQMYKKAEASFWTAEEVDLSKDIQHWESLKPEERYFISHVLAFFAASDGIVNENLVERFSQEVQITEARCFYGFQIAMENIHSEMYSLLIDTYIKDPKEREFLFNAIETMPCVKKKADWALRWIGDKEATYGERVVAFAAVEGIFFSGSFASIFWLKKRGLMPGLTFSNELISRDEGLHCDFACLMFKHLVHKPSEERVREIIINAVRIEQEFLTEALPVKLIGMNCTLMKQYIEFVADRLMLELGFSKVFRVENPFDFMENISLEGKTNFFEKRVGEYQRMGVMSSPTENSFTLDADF

Consider `O=C(Nc1nc(-c2ccc(O)c(O)c2)cs1)c1ccccc1` [COH4], for which the IC50 turned out to be 15.3 ± 1.8 µM in data set [1] (setting [9]); 20.6 µM with human leukemia REH cells (Homo sapiens, REH); 23 µM in [2] (Homo sapiens, LNCaP); 30.6 µM in [3] (Homo sapiens, KB); 11.8 µM in [4] (setting [10]); 52.6 µM in data set [5] (Homo sapiens, NHDF).
Take `O=C(Nc1nc(-c2ccc(O)c(O)c2)cs1)c1ccc(O)c(O)c1` [COH20]: in the data set with KBMDR, the “concentration exhibiting cytotoxicity towards KBMDR cells” value was 80 µM. The “cytotoxicity to KBMDR (in words)” value with KBMDR (overexpresses the MDR pump) was “at lower concentrations than 3-AP or HU”. Besides, the “inhibition of the recombinant RRM1/RRM2 complex in vitro” value in data set [1] worked out at 90.2%. Further, the IC50 was 9.3 ± 2.3 µM in data set [1] (setting [9]); 9.31 ± 2.3 µM in [1] (Table 2, no added Fe, read-out: IC50 ± S.D. RRM1/RRM2); 2.54 µM with human leukemia REH cells (Homo sapiens, REH); 8.49 µM in data set [2] (Homo sapiens, LNCaP); 9.25 µM in data set [3] (Homo sapiens, KB); 5.26 µM in [4] (setting [10]). For the same compound, the IC50 in data set [5] (Homo sapiens, NHDF) came out at 82.8 µM. Moreover, the “decrease of intracellular RR activity” value with intracellular RR is listed as “approximately 50%”. The “cytotoxicity to KBHURs (in words)” value with KBHURs is given as “cytotoxic to KBHURs at significantly lower concentrations than the other RR inhibitors tested”. Further, the “concentration cytotoxic / growth inhibiting to the cancer cell lines” value in data set [6] is given as “less than 10 μM”. For the same compound, the half-life in data set [7] (male, rat, plasma, other: injected, 1 mg/kg, three male rats, 1 mg/kg, plasma, read-out: terminal half-life (T1/2) (converted)) is ~5.5 h.
Regarding `O=C(Nc1nc(-c2ccc(O)c(O)c2)c(-c2ccccc2)s1)c1ccc(O)c(O)c1` [COH29], the GI50 in data set [8] (except HT29, UACC-257, NCI/ADR-RES, CAKI-1) is < 10 µM. The IC50 is < 10 µM in data set [8] (except colon cancer HT29, melanoma UACC-257, ovarian cancer NCI/ADR-RES, renal cancer CAKI-1, read-out: IC50 in all cell types tested); 2.6 µM in the data set with Ovarian Cancer OV 90; 2.5 µM in data set [4] (Homo sapiens, MOLT-4, Table 4, read-out: IC50 Leukemia MOLT-4); 2.8 µM in the data set with Leukemia CCRF-CEM; 5 µM with Leukemia SUP B15. Also, the AUC in data set [7] (rat, plasma, intravenous, 25 mg/kg, rats, 25 mg/kg, Avg. of triplicate, read-out: AUC) was 3480 ng·h/mL; in data set [7] (rat, plasma, intravenous, 25 mg/kg, rats, 25 mg/kg, individual analysis 1-3, read-out: AUC), 3670 ng·h/mL; in data set [7] (setting [11]), 2861 ng·h/mL and 3918 ng·h/mL. Further, the Cmax in data set [7] (rat, plasma, intravenous, 25 mg/kg, rats, 25 mg/kg, Avg. of triplicate, read-out: Cmax) was 27600 ng/mL; in data set [7] (rat, plasma, intravenous, 25 mg/kg, rats, 25 mg/kg, individual analysis 1-3, read-out: Cmax) it was 31300 ng/mL; in data set [7] (setting [11]), 26000 ng/mL and 25600 ng/mL. In addition, the half-life in data set [7] (rat, plasma, intravenous, 25 mg/kg, rats, 25 mg/kg, Avg. of triplicate, read-out: T1/2 (converted)) is 2.67 h. The Vd in [7] (rat, plasma, intravenous, 25 mg/kg, rats, 25 mg/kg, Avg. of triplicate, read-out: Vss) stood at 0.804 L/kg. Besides, the clearance in data set [7] (rat, plasma, intravenous, 25 mg/kg, rats, Avg. of triplicate) is 122 mL/min/kg; in data set [7] (rat, plasma, intravenous, 25 mg/kg, rats, individual analysis 1-3), 114 mL/min/kg. For the same compound, the time of peak concentration (Tmax) in data set [7] (rat, plasma, intravenous, rats, 25 mg/kg, individual analysis 1-3) amounted to 1.8 min. In data set [7] (setting [11]), the CL is 145.6 mL/min/kg and 106.4 mL/min/kg. The T1/2 in data set [7] (setting [11]) is 0.4 h and 7.6 h and 0.03 h. In data set [7] (setting [11]), the Vss was 1.185 L/kg and 0.576 L/kg and 0.653 L/kg. Moreover, the AUC dose dependence result in data set [7] (rats, i.v. bolus) is listed as “dose-dependent manner”.
`NC(=S)NN=Cc1ncccc1N` [Compound 3-AP, 3-aminopyridine-2-carboxaldehyde thiosemicarbazone, reference compound]: the “concentration exhibiting cytotoxicity towards KBMDR cells” value in the data set with KBMDR was determined as 200 µM. For the same compound, the IC50 was determined as 1.2 ± 0.13 µM in data set [1] (setting [9]); 1.42 µM in the data set on human leukemia REH cells (Homo sapiens, REH); 1.75 µM in data set [2] (Homo sapiens, LNCaP); 1.98 µM in data set [3] (Homo sapiens, KB); 1.21 µM in data set [4] (setting [10]); 7.35 µM in data set [5] (Homo sapiens, NHDF).
For the compound `NC(=O)NO` [HU, hydroxyurea, reference compound], the “concentration exhibiting cytotoxicity towards KBMDR cells” value with KBMDR was > 1000 µM. The IC50 in [1] (setting [9]) was 148 ± 7.34 µM; with human leukemia REH cells it was 32.8 µM; in data set [2] it was 280 µM; in [3], 300 µM; in data set [4] (72 hours, Table 3, read-out: IC50 MOLT-4) it was 165 µM; in [5], > 1000 µM.
With `O=C1C(Cl)=C(Nc2ccc(S(=O)(=O)Nc3ccccn3)cc2)C(=O)c2ccccc21` [NSC #45382], in data set [1], the “inhibition of native RRM1/RRM2 activity in vitro screen” value is ≥ 80%.
With `Cl.O=c1oc2ccccc2c(O)c1C=Nc1nc(-c2ccc(O)c(O)c2)cs1` [NSC #659390], the “inhibition of native RRM1/RRM2 activity in vitro screen” value in [1] is ≥ 80%.

Broadly, the GI50 is the concentration that inhibits growth by half. A low value points to more potent growth inhibition. One may read the AUC as the area under the concentration-time curve, a measure of exposure. The Cmax is the peak of the concentration-time curve. A word on the clearance: it is the rate of elimination divided by the concentration. Read a low clearance as inefficient removal. What is called Tmax is the time at which the peak concentration occurs. By Vss is commonly meant the apparent volume that relates the amount in the body to the concentration in plasma or blood.
